Reference: the NIST ThermoML archive (doi:10.1016/j.fluid.2017.09.014)

Test: xn = mol fraction of the nth substance listed
Conditions: Vibrating tube method

O=S=O [sulfur dioxide] + O=C=O
Conditions	mass density [kg/m3]
298.1 K, 34441 kPa, Liquid, x2 = 0.9478	1013.3
298.1 K, 35077 kPa, Liquid, x2 = 0.9478	1015.5
298.1 K, 35971 kPa, Liquid, x2 = 0.9478	1018.4
298.1 K, 36493 kPa, Liquid, x2 = 0.9478	1020.2
298.1 K, 37078 kPa, Liquid, x2 = 0.9478	1022
298.11 K, 7503 kPa, Liquid, x2 = 0.9478	829.8
298.11 K, 8006 kPa, Liquid, x2 = 0.9478	838.7
298.11 K, 8501 kPa, Liquid, x2 = 0.9478	846.7
298.11 K, 10505 kPa, Liquid, x2 = 0.9478	872.1
298.11 K, 11004 kPa, Liquid, x2 = 0.9478	877.7
298.11 K, 13010 kPa, Liquid, x2 = 0.9478	897.8
298.11 K, 13500 kPa, Liquid, x2 = 0.9478	902.3
298.11 K, 15011 kPa, Liquid, x2 = 0.9478	915.2
298.11 K, 15500 kPa, Liquid, x2 = 0.9478	919.1
298.11 K, 16016 kPa, Liquid, x2 = 0.9478	923
298.11 K, 16534 kPa, Liquid, x2 = 0.9478	926.8
298.11 K, 17024 kPa, Liquid, x2 = 0.9478	930.2
298.11 K, 17492 kPa, Liquid, x2 = 0.9478	933.3
298.11 K, 17978 kPa, Liquid, x2 = 0.9478	936.5
298.11 K, 18527 kPa, Liquid, x2 = 0.9478	939.8
298.11 K, 19025 kPa, Liquid, x2 = 0.9478	942.9
298.11 K, 19477 kPa, Liquid, x2 = 0.9478	945.6
298.11 K, 20051 kPa, Liquid, x2 = 0.9478	948.9
298.11 K, 20492 kPa, Liquid, x2 = 0.9478	951.5
298.11 K, 21501 kPa, Liquid, x2 = 0.9478	957
298.11 K, 23041 kPa, Liquid, x2 = 0.9478	965.2
298.11 K, 28987 kPa, Liquid, x2 = 0.9478	993.1
298.11 K, 29543 kPa, Liquid, x2 = 0.9478	994.8
298.11 K, 30013 kPa, Liquid, x2 = 0.9478	996.8
298.11 K, 30505 kPa, Liquid, x2 = 0.9478	998.9
298.11 K, 30997 kPa, Liquid, x2 = 0.9478	1000.7
298.11 K, 31516 kPa, Liquid, x2 = 0.9478	1002.6
298.11 K, 33949 kPa, Liquid, x2 = 0.9478	1011.6
298.11 K, 35494 kPa, Liquid, x2 = 0.9478	1016.9
298.11 K, 37574 kPa, Liquid, x2 = 0.9478	1023.6
298.11 K, 37960 kPa, Liquid, x2 = 0.9478	1024.8
298.11 K, 38545 kPa, Liquid, x2 = 0.9478	1026.6
298.11 K, 38913 kPa, Liquid, x2 = 0.9478	1027.8
298.11 K, 39519 kPa, Liquid, x2 = 0.9478	1029.5
298.11 K, 40060 kPa, Liquid, x2 = 0.9478	1031.1
298.12 K, 9508 kPa, Liquid, x2 = 0.9478	860.5
298.12 K, 10039 kPa, Liquid, x2 = 0.9478	866.6
298.12 K, 11504 kPa, Liquid, x2 = 0.9478	882.9
298.12 K, 12000 kPa, Liquid, x2 = 0.9478	887.9
298.12 K, 12503 kPa, Liquid, x2 = 0.9478	892.9
298.12 K, 14006 kPa, Liquid, x2 = 0.9478	906.7
298.12 K, 14500 kPa, Liquid, x2 = 0.9478	910.9
298.12 K, 40411 kPa, Liquid, x2 = 0.9478	1032.1
322.39 K, 392 kPa, Gas, x2 = 0.9503	7
322.39 K, 1252 kPa, Gas, x2 = 0.9503	22.2
322.39 K, 1707 kPa, Gas, x2 = 0.9503	31.7
322.39 K, 2008 kPa, Gas, x2 = 0.9503	37
322.39 K, 3512 kPa, Gas, x2 = 0.9503	70.9
322.39 K, 4009 kPa, Gas, x2 = 0.9503	82.8
322.39 K, 4519 kPa, Gas, x2 = 0.9503	96.9
322.39 K, 5017 kPa, Gas, x2 = 0.9503	111.5
322.39 K, 5528 kPa, Gas, x2 = 0.9503	127.9
322.39 K, 6019 kPa, Gas, x2 = 0.9503	145.7
322.39 K, 7009 kPa, Fluid (supercritical or subcritical phases), x2 = 0.9503	189.5
322.39 K, 7504 kPa, Fluid (supercritical or subcritical phases), x2 = 0.9503	218.4
322.4 K, 749 kPa, Gas, x2 = 0.9503	13.6
322.4 K, 1002 kPa, Gas, x2 = 0.9503	17.9
322.4 K, 1509 kPa, Gas, x2 = 0.9503	27.5
322.4 K, 2511 kPa, Gas, x2 = 0.9503	48.1
322.4 K, 3008 kPa, Gas, x2 = 0.9503	58.8
322.41 K, 6514 kPa, Fluid (supercritical or subcritical phases), x2 = 0.9503	166.3
322.41 K, 8037 kPa, Fluid (supercritical or subcritical phases), x2 = 0.9503	254.6
322.41 K, 8521 kPa, Fluid (supercritical or subcritical phases), x2 = 0.9503	307.2
322.41 K, 9006 kPa, Fluid (supercritical or subcritical phases), x2 = 0.9503	371
322.45 K, 9501 kPa, Fluid (supercritical or subcritical phases), x2 = 0.9503	460.8
322.46 K, 9992 kPa, Fluid (supercritical or subcritical phases), x2 = 0.9503	538
322.46 K, 30511 kPa, Fluid (supercritical or subcritical phases), x2 = 0.9503	905.8
322.46 K, 34988 kPa, Fluid (supercritical or subcritical phases), x2 = 0.9503	930.2
322.46 K, 35500 kPa, Fluid (supercritical or subcritical phases), x2 = 0.9503	933
322.46 K, 36061 kPa, Fluid (supercritical or subcritical phases), x2 = 0.9503	935.4
322.46 K, 36509 kPa, Fluid (supercritical or subcritical phases), x2 = 0.9503	937.7
322.46 K, 37005 kPa, Fluid (supercritical or subcritical phases), x2 = 0.9503	940.1
322.46 K, 37561 kPa, Fluid (supercritical or subcritical phases), x2 = 0.9503	942.4
322.47 K, 10501 kPa, Fluid (supercritical or subcritical phases), x2 = 0.9503	585
322.47 K, 29929 kPa, Fluid (supercritical or subcritical phases), x2 = 0.9503	902.4
322.47 K, 31027 kPa, Fluid (supercritical or subcritical phases), x2 = 0.9503	908.9
322.47 K, 31517 kPa, Fluid (supercritical or subcritical phases), x2 = 0.9503	912
322.47 K, 32536 kPa, Fluid (supercritical or subcritical phases), x2 = 0.9503	917.5
322.47 K, 33070 kPa, Fluid (supercritical or subcritical phases), x2 = 0.9503	920.6
322.47 K, 33539 kPa, Fluid (supercritical or subcritical phases), x2 = 0.9503	923.2
322.47 K, 34062 kPa, Fluid (supercritical or subcritical phases), x2 = 0.9503	925.5
322.47 K, 34511 kPa, Fluid (supercritical or subcritical phases), x2 = 0.9503	928
322.47 K, 38091 kPa, Fluid (supercritical or subcritical phases), x2 = 0.9503	945
322.47 K, 38434 kPa, Fluid (supercritical or subcritical phases), x2 = 0.9503	946.6
322.47 K, 39200 kPa, Fluid (supercritical or subcritical phases), x2 = 0.9503	950
322.47 K, 40947 kPa, Fluid (supercritical or subcritical phases), x2 = 0.9503	956.3
322.48 K, 20496 kPa, Fluid (supercritical or subcritical phases), x2 = 0.9503	829.2
322.48 K, 23049 kPa, Fluid (supercritical or subcritical phases), x2 = 0.9503	853.3
322.48 K, 25500 kPa, Fluid (supercritical or subcritical phases), x2 = 0.9503	871.4
322.48 K, 27026 kPa, Fluid (supercritical or subcritical phases), x2 = 0.9503	882.9
322.48 K, 28501 kPa, Fluid (supercritical or subcritical phases), x2 = 0.9503	892.7
322.48 K, 32039 kPa, Fluid (supercritical or subcritical phases), x2 = 0.9503	914.6
322.48 K, 39641 kPa, Fluid (supercritical or subcritical phases), x2 = 0.9503	951.7
322.48 K, 40153 kPa, Fluid (supercritical or subcritical phases), x2 = 0.9503	953.9
322.48 K, 40902 kPa, Fluid (supercritical or subcritical phases), x2 = 0.9503	956.7
322.49 K, 11003 kPa, Fluid (supercritical or subcritical phases), x2 = 0.9503	621.1
322.49 K, 18008 kPa, Fluid (supercritical or subcritical phases), x2 = 0.9503	800.3
322.49 K, 19008 kPa, Fluid (supercritical or subcritical phases), x2 = 0.9503	812.8
322.49 K, 20012 kPa, Fluid (supercritical or subcritical phases), x2 = 0.9503	824.3
322.49 K, 21007 kPa, Fluid (supercritical or subcritical phases), x2 = 0.9503	834.7
322.49 K, 21533 kPa, Fluid (supercritical or subcritical phases), x2 = 0.9503	839.7
322.49 K, 22009 kPa, Fluid (supercritical or subcritical phases), x2 = 0.9503	843.9
322.49 K, 22496 kPa, Fluid (supercritical or subcritical phases), x2 = 0.9503	848.2
322.49 K, 23500 kPa, Fluid (supercritical or subcritical phases), x2 = 0.9503	856.5
322.49 K, 24003 kPa, Fluid (supercritical or subcritical phases), x2 = 0.9503	860.4
